# Data reported in paper PMC6547440, “The HRP3 PWWP domain recognizes the minor groove of double-stranded DNA and recruits HRP3 to chromatin” (Nucleic Acids Research, 2019).
# No end group written: not given here. Me3 = trimethyl-lysine (Lys side chain trimethylated); Me2 = dimethyl-lysine (Lys side chain dimethylated)
# Columns and labels:
# H3K36me3 peptide = assay: NMR titration, loss of H3K36me3 peptide binding of HRP3 PWWP mutants; settings: versus wild-type
# Procedure: (§1) All 2D ^1H-^15N HSQC NMR spectra were collected on the Bruker Avance III HD 600 MHz and 800 MHz spectrometers at 298 K. The NMR data were processed by NMRPipe ([39]) and analysed by KUJIRA ([40]) running with NMRview ([41]) softwares. Chemical shift perturbation experiments were carried out using ^15N-labelled HRP3 PWWP (residues 1–110) dissolved in buffer containing 20 mM PBS at pH 6.9, 20 mM NaCl and 2 mM DTT. A series of 2D ^1H-^15N HSQC spectra were recorded at HRP3 PWWP:H3K36me3/2/1/0 (residues 29–41) molar ratios of 1:0, 1:0.5, 1:1.5, 1:4, 1:6, 1:10, 1:15 and 1:20, respectively. The combined chemical shift perturbation was calculated using the following equation: Δδ = [(Δδ^1H)^2 + (Δδ^15N/5)^2]^1/2. Dissociation constants were calculated by fitting the data to a single-site ligand-binding model (SigmaPlot).
# chromatin of HepG2 cells [1] = assay: Subcellular fractionation, chromatin binding of GFP-HRP3 variants in HepG2 cells; type: cell-based, human; settings: cellular fractionation, western blot anti-GFP
# Procedure: (§2) HepG2 (ATCC HB-8065) and HEK293T human embryonic kidney cells (ATCC #CRL-11268) were cultured in Dulbecco’s modified Eagle’s medium supplemented with 10% FBS. Stable overexpression of wild-type or mutant HRP3 in HepG2 cells was performed using FUGW lentiviral constructs expressing wild-type or mutant HRP3. Lentiviral vector infections ([47]) and plasmid transfections ([48]) were performed as previously described. Overexpression efficiency was determined by western blot.
# Cellular fractionations were performed using a Subcellular Fractionation Kit (Thermo Scientific, cat. 78840) according to the manufacturer’s protocol. A total of 1 × 10^6 cells were used for each cell line’s fractionation. Soluble nuclear contents and chromatin-bound nuclear contents were analysed by western blotting using anti-GFP (gta-20, Chromo-Tek) and anti-histone H3 (4499S, CST) antibodies.
# chromatin of HepG2 cells [2] = assay: ChIP-Seq of GFP-HRP3 variants in HepG2 cells; type: cell-based, human; settings: ChIP-Seq with GFP antibody, HepG2, two biological replicates combined
# Procedure: as §2
# For chromatin immunoprecipitation, HepG2 cells were cross-linked with 1% formaldehyde at 37°C for 10 min and quenched with 0.125 M glycine for 5 min at room temperature. ChIP was performed using a ChIP assay kit (Millipore) according to the manufacturer’s protocol. Antibodies used for ChIP were GFP (gta-20, Chromo-Tek) and H3K36me3 (ab9050, abcam).
# ChIP-Seq data were aligned to human genome hg19 using Bowtie 1.0 allowing one mismatch. Two biological replicates were performed and combined for the analysis. Analysis was performed using the Galaxy ([49]) and Cistrome ([50]) Platform and via custom R scripts for Bioconductor ([51]). Peak calling was performed using MACS2. Promoter definitions were downloaded from the UCSC browser ([52]). DNase I hypersensitivity and MNase-Seq data from ENCODE (GSM816662, GSM920557) ([53]) were used.
# HRP3 PWWP WT = biological target: T1, HRP3 PWWP WT (Homo sapiens, UniProt Q9Y3E1); assay: NMR titration of H3K36 peptides with wild-type HRP3 PWWP; type: binding; settings: 15N-labelled HRP3 PWWP (1–110) WT, H3 residues 29–41, 20 mM PBS pH 6.9, 20 mM NaCl, 2 mM DTT, 298 K
# T1 construct: using ^15N-labelled HRP3 PWWP (residues 1–110) dissolved in buffer; 6xHis-SUMO (cleaved yes); made in house; host or cells: Escherichia coli Rosetta (DE3)
# Procedure: as §1
# HRP3 PWWP = assay: DNA geometry analysis of the PWWP/DNA complex structures; parameters: species or system human
# Procedure: DNA geometry was analysed with the 3DNA ([42]) and Curves+ ([43]) programs. Electrostatic potentials were calculated using the DelPhi program ([44]). The minor groove width was measured according to the method described ([45]). In detail, the distances between the ith (i indicates the number of the base from one chain) phosphate atom from one chain and the (i + 4)th atom from the paired chain were used to describe the minor groove width at the ith base. Electrostatic potentials were calculated at the midpoints between the above phosphate atom pairs used to calculate the minor groove widths.
# HRP3 PWWP (1-110) WT = HRP3 PWWP (1-110) WT (UniProt Q9Y3E1 1-110); assay: MST; MST: 50 mM KCl, 10 mM Na cacodylate pH 6.5, 2 mM DTT, 200 nM FAM-dsDNA; ITC: 10 mM PBS pH 7.0, 50 mM NaCl, 2 mM b-ME, 20 C; nucleosome EMSA: 20 mM Tris pH 7.5; settings: protein: recombinant, tags: none (His-SUMO removed), label: 5'-FAM (MST), blunt
# [3] = biological target: T2, HRP3 PWWP domain (residues 1–110) (human, UniProt Q9Y3E1 1-110); assay: NMR titration; 2D 1H-15N HSQC chemical shift perturbation of 15N-labelled HRP3 PWWP (1–110); H3 peptide (29–41) added to molar ratios 1:0 to 1:20; 298 K; 20 mM PBS pH 6.9, 20 mM NaCl, 2 mM DTT; single-site ligand-binding fit; settings: both partners purified
# T2 construct: HDGF-related protein 3 (HRP3, HDGFL3), human, residues 1-110 holding the PWWP domain; His-SUMO tag removed by ULP1 protease; also called HRP3 PWWP (1–110); HRP3(1-110); source: E. coli Rosetta (DE3), purified (nickel column, gel filtration), 15N-labelled
# [4] = biological target: T3, HRP3 PWWP domain (residues 1–110) Y22A (human, UniProt Q9Y3E1 1-110, Y22A); assay: as above; settings: both partners purified
# T3 construct: HDGF-related protein 3 (HRP3, HDGFL3), human, residues 1-110 holding the PWWP domain, aromatic cage mutant; they are not repeated for the mutants; source: E. coli Rosetta (DE3), purified (nickel column, gel filtration), 15N-labelled
# [5] = biological target: T4, HRP3 PWWP domain (residues 1–110) F48A (human, UniProt Q9Y3E1 1-110, F48A); assay: as above; settings: both partners purified
# T4 construct: HDGF-related protein 3 (HRP3, HDGFL3), human, residues 1-110 holding the PWWP domain, aromatic cage mutant; they are not repeated for the mutants; source: E. coli Rosetta (DE3), purified (nickel column, gel filtration), 15N-labelled
# [6] = biological target: T5, HRP3 PWWP domain (residues 1–110) E53A (human, UniProt Q9Y3E1 1-110, E53A); assay: as above; settings: both partners purified
# T5 construct: HDGF-related protein 3 (HRP3, HDGFL3), human, residues 1-110 holding the PWWP domain; they are not repeated for the mutants; source: E. coli Rosetta (DE3), purified (nickel column, gel filtration), 15N-labelled
# [7] = biological target: HRP3 PWWP K18A/N76A/R78A (KNR-A) (UniProt Q9Y3E1 1-110, K18A;N76A;R78A); assay: MST; MST: 50 mM KCl, 10 mM Na cacodylate pH 6.5, 2 mM DTT, 200 nM FAM-dsDNA; ITC: 10 mM PBS pH 7.0, 50 mM NaCl, 2 mM b-ME, 20 C; nucleosome EMSA: 20 mM Tris pH 7.5; settings: protein: recombinant; tags: none (His-SUMO removed); label: 5'-FAM (MST); blunt; self-complementary
# HRP3 PWWP N76A = HRP3 PWWP N76A (UniProt Q9Y3E1 1-110, N76A); assay: MST; affinity unchanged vs WT; MST: 50 mM KCl, 10 mM Na cacodylate pH 6.5, 2 mM DTT, 200 nM FAM-dsDNA; ITC: 10 mM PBS pH 7.0, 50 mM NaCl, 2 mM b-ME, 20 C; nucleosome EMSA: 20 mM Tris pH 7.5; settings: protein: recombinant; tags: none (His-SUMO removed); label: 5'-FAM (MST); blunt; self-complementary
# Chain of HRP3 PWWP N76A (Q9Y3E1 1-110 N76A): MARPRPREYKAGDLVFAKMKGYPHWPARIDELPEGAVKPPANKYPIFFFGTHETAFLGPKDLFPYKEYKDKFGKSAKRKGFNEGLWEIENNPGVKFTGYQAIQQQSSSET
# Chain of HRP3 PWWP (1-110) WT (Q9Y3E1 1-110): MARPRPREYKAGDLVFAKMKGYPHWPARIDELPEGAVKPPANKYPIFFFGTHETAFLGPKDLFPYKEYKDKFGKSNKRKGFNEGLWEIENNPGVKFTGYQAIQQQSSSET
# T1 sequence (Q9Y3E1 1-110): as above
# T2 sequence (Q9Y3E1 1-110): as above
# Chain of HRP3 PWWP K18A/N76A/R78A (KNR-A) (Q9Y3E1 1-110 K18A/N76A/R78A): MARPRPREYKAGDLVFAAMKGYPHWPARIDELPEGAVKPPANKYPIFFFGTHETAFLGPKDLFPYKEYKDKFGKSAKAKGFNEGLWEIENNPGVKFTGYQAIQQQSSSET
# T4 sequence (Q9Y3E1 1-110 F48A): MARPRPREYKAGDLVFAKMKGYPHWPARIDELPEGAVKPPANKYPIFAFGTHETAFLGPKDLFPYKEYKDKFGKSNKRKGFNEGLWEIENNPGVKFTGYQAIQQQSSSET
# T5 sequence (Q9Y3E1 1-110 E53A): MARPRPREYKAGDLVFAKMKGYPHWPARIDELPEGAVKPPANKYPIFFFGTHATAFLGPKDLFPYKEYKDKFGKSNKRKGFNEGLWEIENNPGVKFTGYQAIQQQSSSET
# T3 sequence (Q9Y3E1 1-110 Y22A): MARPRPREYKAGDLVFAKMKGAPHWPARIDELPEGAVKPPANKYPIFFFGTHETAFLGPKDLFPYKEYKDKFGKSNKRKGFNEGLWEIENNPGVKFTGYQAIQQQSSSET
molecule,measurement,setting,value
Y22A: HRP3 PWWP aromatic cage mutant,fold loss of binding affinity for the H3K36me3 peptide,H3K36me3 peptide,15 fold
same,chromatin binding,chromatin of HepG2 cells [1],"but not the H3K36me3 binding amino acids (Y22A) alone, dramatically reduced the chromatin binding"
same,chromatin binding / recruitment by ChIP-Seq,chromatin of HepG2 cells [2],weaker consequences
"KNR-A: HRP3 K18A/N76A/R78A mutant, GFP fusion",chromatin binding,chromatin of HepG2 cells [1],dramatically reduced the chromatin binding
same,chromatin binding / recruitment by ChIP-Seq,chromatin of HepG2 cells [2],strong reduction in chromatin binding
CNCCCC[C@H](NC(=O)[C@@H](NC(=O)CNC(=O)CNC(=O)[C@@H](NC(=O)[C@H](C)NC(=O)[C@@H]1CCCN1C(=O)[C@H](C)N)[C@@H](C)O)C(C)C)C(=O)N[C@@H](CCCCN)C(=O)N1CCC[C@H]1C(=O)N[C@@H](Cc1c[nH]cn1)C(=O)N[C@@H](CCCNC(=N)N)C(=O)N[C@@H](Cc1ccc(O)cc1)C(=O)O [H3K36me1],Kd,HRP3 PWWP WT,5.1 ± 1.9 mM
"K18A: DNA binding mutant of human HRP3, GFP fusion",chromatin binding,chromatin of HepG2 cells [1],dramatically reduced the chromatin binding
CC(C)[C@H](NC(=O)CNC(=O)CNC(=O)[C@@H](NC(=O)[C@H](C)NC(=O)[C@@H]1CCCN1C(=O)[C@H](C)N)[C@@H](C)O)C(=O)N[C@@H](CCCCN)C(=O)N[C@@H](CCCCN)C(=O)N1CCC[C@H]1C(=O)N[C@@H](Cc1c[nH]cn1)C(=O)N[C@@H](CCCNC(=N)N)C(=O)N[C@@H](Cc1ccc(O)cc1)C(=O)O [H3K36me0],Kd,HRP3 PWWP WT,4.7 ± 1.2 mM
"KYNR-A: HRP3 K18A/Y22A/N76A/R78A mutant, GFP fusion",chromatin binding,chromatin of HepG2 cells [1],dramatically reduced the chromatin binding
same,chromatin binding / recruitment by ChIP-Seq,chromatin of HepG2 cells [2],strong reduction in chromatin binding
5′-GCGCGCGCGC-3′ [10-mer-GC],average helical twist,HRP3 PWWP; 3DNA,35.3 °
same,average propeller twist,HRP3 PWWP; 3DNA,−7.3 °
same,bending angle towards the minor groove per 6 bps,HRP3 PWWP; Curve+ software,3.4 °
same,narrowing of minor groove upon PWWP binding,HRP3 PWWP; crystal structure of complex,~2.7 Å
same,"width of the minor groove, PWWP-binding region",HRP3 PWWP; crystal structure of complex,10.5 Å
same,"width of the minor groove, PWWP-free region",HRP3 PWWP; crystal structure of complex,13.2 Å
F48A: HRP3 PWWP aromatic cage mutant,fold loss of binding affinity for the H3K36me3 peptide,H3K36me3 peptide,6.7 fold
E53A: HRP3 PWWP mutant E53A,fold loss of binding affinity for the H3K36me3 peptide,H3K36me3 peptide,5.7 fold
16-mer-random (dsDNA) DNA 1: CAGGCTGGTCTTGAAC DNA 2: GTTCAAGACCAGCCTG,Kd,HRP3 PWWP (1-110) WT,0.0032 mM
"APATGGVK(Me3)KPHRY (peptide, UniProt P68431 30-42, looked up, histone H3, residues 29-41; also called H3K36me3 peptide; H3K36me3-containing peptide) [H3K36me3 histone peptide (H3 residues 29–41)]",Kd,[3],1.3 mM
same,fold loss of binding affinity against wild type,[4],15 fold
same,fold loss of binding affinity against wild type,[5],6.7 fold
same,fold decrease of binding against wild type,[6],5.7 fold
16-mer-TA (dsDNA) DNA 1: TATATATATATATATA DNA 2: TATATATATATATATA,Kd,HRP3 PWWP (1-110) WT; self-complementary,0.0013 mM
same,binding signal,[7],58 fold loss vs WT
same,binding result,HRP3 PWWP N76A,binds
"APATGGVK(Me2)KPHRY (peptide, UniProt P68431 30-42, looked up, histone H3, residues 29-41; also called H3K36me2-containing peptide) [H3K36me2 histone peptide (H3 residues 29–41)]",Kd,[3],2.1 mM
16-mer-GC (dsDNA) DNA 1: GCGCGCGCGCGCGCGC DNA 2: GCGCGCGCGCGCGCGC,Kd,HRP3 PWWP (1-110) WT; self-complementary,0.0028 mM
same,binding signal,[7],5.7 fold loss vs WT
